# In patent publication US8802597B2, “Herbicidal pyrimidines” (E I du Pont de Nemours and Company, priority 2003, dated 2014):
# Columns and labels:
# Assay in all cases: Test C pre/postemergence
# Format in all cases: in vivo
# [1] = test system: woolly cupgrass (Eriochloa villosa); conditions: for Plant response rating, Cupgrass, Woolly: Preemergence
# Procedure, shortened: (§1)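 Seeds sown and sprayed preemergence with test compound in non-phytotoxic solvent containing surfactant; postemergence sprays, same formulation, went onto plants 2 to 18 cm tall (1- to 4-leaf stage). Plants held in greenhouse 12 to 14 days, then visually rated against untreated controls on a 0–100 scale (0 no effect, 100 complete control).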
# [2] = test system: velvetleaf (Abutilon theophrasti); conditions: for Plant response rating, Velvetleaf: Preemergence, scale 0 to 100, 0 no effect, 100 complete control
# Procedure, shortened: as §1
# [3] = test system: bermudagrass (Cynodon dactylon); conditions: for Plant response rating, Bermudagrass: Preemergence; for Plant response rating (scale of 0 to 100), Bermudagrass / Bermudagrass plant response rating: Postemergence; for Bermudagrass plant response rating: scale 0 to 100 (0 no effect, 100 complete control)
# Procedure, shortened: as §1
# soybean (Glycine max) = conditions: for Plant response rating, Soybean: Preemergence, scale 0 to 100, 0 no effect, 100 complete control
# Procedure, shortened: as §1
# [4] = test system: eastern black nightshade (Solanum ptycanthum); conditions: Preemergence, scale 0 to 100, 0 no effect, 100 complete control
# Procedure, shortened: as §1
# [5] = test system: goosegrass (Eleusine indica); conditions: for Plant response rating, Goosegrass: Preemergence
# Procedure, shortened: as §1
# [6] = test system: yellow nutsedge (Cyperus esculentus); conditions: for Plant response rating, Nutsedge, Yellow: Preemergence, scale 0 to 100, 0 no effect, 100 complete control
# Procedure, shortened: as §1
# [7] = test system: giant foxtail (Setaria faberii); conditions: for Plant response rating, Foxtail, Giant: Preemergence
# Procedure, shortened: as §1
# [8] = test system: morningglory (Ipomoea coccinea); conditions: for Plant response rating, Morningglory: Preemergence
# Procedure, shortened: as §1
# [9] = test system: common ragweed (Ambrosia elatior); conditions: for Plant response rating, Ragweed: Preemergence, scale 0 to 100, 0 no effect, 100 complete control
# Procedure, shortened: as §1
# [10] = test system: lambsquarters (Chenopodium album); conditions: for Plant response rating, Lambsquarters: Preemergence
# Procedure, shortened: as §1
# [11] = test system: Surinam grass (Brachiaria decumbens); conditions: for Plant response rating, Surinam Grass: Preemergence, scale 0 to 100, 0 no effect, 100 complete control; for Plant response rating (scale of 0 to 100), Surinam Grass: Postemergence
# Procedure, shortened: as §1
# [12] = 16 g ai/ha, scale 0 to 100, 0 no effect, 100 complete control
# [13] = 31 g ai/ha, scale 0 to 100, 0 no effect, 100 complete control
# [14] = 62 g ai/ha, scale 0 to 100, 0 no effect, 100 complete control
# [15] = Postemergence, 125 g ai/ha, scale 0 to 100 (0 no effect, 100 complete control)
compound,measurement,setting,value
CCCOC(=O)c1nc(C2CC2)nc(N)c1Cl [Compound 75],"Plant response rating, Cupgrass, Woolly",[1]; [12],0
same,"Plant response rating, Cupgrass, Woolly",[1]; [13],0
same,"Plant response rating, Cupgrass, Woolly",[1]; [14],60
same,"Plant response rating, Cupgrass, Woolly","[1]; 125 g ai/ha, scale 0 to 100",60
same,"Plant response rating, Velvetleaf",[2]; 16 g ai/ha,5
same,"Plant response rating, Velvetleaf",[2]; 31 g ai/ha,60
same,"Plant response rating, Velvetleaf",[2]; 62 g ai/ha,85
same,"Plant response rating, Bermudagrass",[3]; [12],0
same,"Plant response rating, Bermudagrass",[3]; [13],0
same,"Plant response rating, Bermudagrass",[3]; [14],0
same,"Plant response rating, Bermudagrass","[3]; 125 g ai/ha, scale 0 to 100",20
same,"Plant response rating, Soybean",soybean (Glycine max); 16 g ai/ha,55
same,"Plant response rating, Soybean",soybean (Glycine max); 31 g ai/ha,60
same,"Plant response rating, Soybean",soybean (Glycine max); 62 g ai/ha,100
same,"Plant response rating, Nightshade",[4]; 16 g ai/ha,0
same,"Plant response rating, Nightshade",[4]; 31 g ai/ha,50
same,"Plant response rating, Nightshade",[4]; 62 g ai/ha,70
same,"Plant response rating, Nightshade",[4],100
same,"Plant response rating, Goosegrass",[5]; [12],0
same,"Plant response rating, Goosegrass",[5]; [13],0
same,"Plant response rating, Goosegrass",[5]; [14],0
same,"Plant response rating, Goosegrass","[5]; 125 g ai/ha, scale 0 to 100",30
same,"Plant response rating, Nutsedge, Yellow",[6]; 16 g ai/ha,0
same,"Plant response rating, Nutsedge, Yellow",[6]; 31 g ai/ha,0
same,"Plant response rating, Nutsedge, Yellow",[6]; 62 g ai/ha,0
same,"Plant response rating, Foxtail, Giant",[7]; [12],0
same,"Plant response rating, Foxtail, Giant",[7]; [13],0
same,"Plant response rating, Foxtail, Giant",[7]; [14],0
same,"Plant response rating, Foxtail, Giant","[7]; 125 g ai/ha, scale 0 to 100",10
same,"Plant response rating, Morningglory",[8]; [12],50
same,"Plant response rating, Morningglory",[8]; [13],90
same,"Plant response rating, Morningglory",[8]; [14],95
same,"Plant response rating, Morningglory","[8]; 125 g ai/ha, scale 0 to 100",100
same,"Plant response rating, Ragweed",[9]; 16 g ai/ha,20
same,"Plant response rating, Ragweed",[9]; 31 g ai/ha,70
same,"Plant response rating, Ragweed",[9]; 62 g ai/ha,80
same,"Plant response rating, Ragweed",[9],90
same,"Plant response rating, Lambsquarters",[10]; [12],70
same,"Plant response rating, Lambsquarters",[10]; [13],75
same,"Plant response rating, Lambsquarters",[10]; [14],80
same,"Plant response rating, Lambsquarters","[10]; 125 g ai/ha, scale 0 to 100",100
same,"Plant response rating, Surinam Grass",[11]; 16 g ai/ha,0
same,"Plant response rating, Surinam Grass",[11]; 31 g ai/ha,0
same,"Plant response rating, Surinam Grass",[11]; 62 g ai/ha,55
CCCCOC(=O)c1nc(C2CC2)nc(N)c1Cl [Compound 76],"Plant response rating (scale of 0 to 100), Cupgrass, Woolly","[1]; Postemergence, 16 g ai/ha",55
same,"Plant response rating (scale of 0 to 100), Cupgrass, Woolly","[1]; Postemergence, 31 g ai/ha",60
same,"Plant response rating (scale of 0 to 100), Cupgrass, Woolly","[1]; Postemergence, 62 g ai/ha",80
same,"Cupgrass, Woolly plant response rating",[1]; [15],95
same,"Plant response rating, Cupgrass, Woolly",[1]; [12],0
same,"Plant response rating, Cupgrass, Woolly",[1]; [13],0
same,"Plant response rating, Cupgrass, Woolly",[1]; [14],20
same,"Plant response rating, Cupgrass, Woolly","[1]; 125 g ai/ha, scale 0 to 100",50
same,"Plant response rating (scale of 0 to 100), Velvetleaf","[2]; Postemergence, 16 g ai/ha",45
same,"Plant response rating (scale of 0 to 100), Velvetleaf","[2]; Postemergence, 31 g ai/ha",80
same,"Plant response rating (scale of 0 to 100), Velvetleaf","[2]; Postemergence, 62 g ai/ha",95
same,Velvetleaf plant response rating,[2]; [15],95
same,"Plant response rating, Velvetleaf",[2]; 16 g ai/ha,30
same,"Plant response rating, Velvetleaf",[2]; 31 g ai/ha,40
same,"Plant response rating, Velvetleaf",[2]; 62 g ai/ha,70
same,"Plant response rating (scale of 0 to 100), Bermudagrass",[3]; 16 g ai/ha,15
same,"Plant response rating (scale of 0 to 100), Bermudagrass",[3]; 31 g ai/ha,70
same,Bermudagrass plant response rating,[3]; 62 g ai/ha,75
same,Bermudagrass plant response rating,[3]; 125 g ai/ha,75
same,"Plant response rating, Bermudagrass",[3]; [12],0
same,"Plant response rating, Bermudagrass",[3]; [13],0
same,"Plant response rating, Bermudagrass",[3]; [14],0
same,"Plant response rating, Bermudagrass","[3]; 125 g ai/ha, scale 0 to 100",0
same,"Plant response rating (scale of 0 to 100), Soybean","soybean (Glycine max); Postemergence, 16 g ai/ha",95
same,"Plant response rating (scale of 0 to 100), Soybean","soybean (Glycine max); Postemergence, 31 g ai/ha",95
same,"Plant response rating (scale of 0 to 100), Soybean","soybean (Glycine max); Postemergence, 62 g ai/ha",95
same,Soybean plant response rating,soybean (Glycine max); [15],100
same,"Plant response rating, Soybean",soybean (Glycine max); 16 g ai/ha,50
same,"Plant response rating, Soybean",soybean (Glycine max); 31 g ai/ha,70
same,"Plant response rating, Soybean",soybean (Glycine max); 62 g ai/ha,95
same,"Plant response rating, Nightshade",[4]; 16 g ai/ha,30
same,"Plant response rating, Nightshade",[4]; 31 g ai/ha,40
same,"Plant response rating, Nightshade",[4]; 62 g ai/ha,60
same,"Plant response rating, Nightshade",[4],100
same,"Plant response rating (scale of 0 to 100), Goosegrass","[5]; Postemergence, 16 g ai/ha",30
same,"Plant response rating (scale of 0 to 100), Goosegrass","[5]; Postemergence, 31 g ai/ha",45
same,"Plant response rating (scale of 0 to 100), Goosegrass","[5]; Postemergence, 62 g ai/ha",45
same,Goosegrass plant response rating,[5]; [15],50
same,"Plant response rating, Goosegrass",[5]; [12],0
same,"Plant response rating, Goosegrass",[5]; [13],0
same,"Plant response rating, Goosegrass",[5]; [14],0
same,"Plant response rating, Goosegrass","[5]; 125 g ai/ha, scale 0 to 100",0
same,"Plant response rating (scale of 0 to 100), Nutsedge, Yellow","[6]; Postemergence, 16 g ai/ha",10
same,"Plant response rating (scale of 0 to 100), Nutsedge, Yellow","[6]; Postemergence, 31 g ai/ha",30
same,"Plant response rating (scale of 0 to 100), Nutsedge, Yellow","[6]; Postemergence, 62 g ai/ha",40
same,"Nutsedge, Yellow plant response rating",[6]; [15],60
same,"Plant response rating, Nutsedge, Yellow",[6]; 16 g ai/ha,0
same,"Plant response rating, Nutsedge, Yellow",[6]; 31 g ai/ha,0
same,"Plant response rating, Nutsedge, Yellow",[6]; 62 g ai/ha,0
same,"Plant response rating (scale of 0 to 100), Foxtail, Giant","[7]; Postemergence, 16 g ai/ha",15
same,"Plant response rating (scale of 0 to 100), Foxtail, Giant","[7]; Postemergence, 31 g ai/ha",25
same,"Plant response rating (scale of 0 to 100), Foxtail, Giant","[7]; Postemergence, 62 g ai/ha",55
same,"Foxtail, Giant plant response rating",[7]; [15],85
same,"Plant response rating, Foxtail, Giant",[7]; [12],0
same,"Plant response rating, Foxtail, Giant",[7]; [13],0
same,"Plant response rating, Foxtail, Giant",[7]; [14],0
same,"Plant response rating, Foxtail, Giant","[7]; 125 g ai/ha, scale 0 to 100",10
same,"Plant response rating (scale of 0 to 100), Morningglory","[8]; Postemergence, 16 g ai/ha",95
same,"Plant response rating (scale of 0 to 100), Morningglory","[8]; Postemergence, 31 g ai/ha",95
same,"Plant response rating (scale of 0 to 100), Morningglory","[8]; Postemergence, 62 g ai/ha",95
same,Morningglory plant response rating,[8]; [15],100
same,"Plant response rating, Morningglory",[8]; [12],40
same,"Plant response rating, Morningglory",[8]; [13],60
same,"Plant response rating, Morningglory",[8]; [14],100
same,"Plant response rating, Morningglory","[8]; 125 g ai/ha, scale 0 to 100",100
same,"Plant response rating (scale of 0 to 100), Ragweed","[9]; Postemergence, 16 g ai/ha",80
same,"Plant response rating (scale of 0 to 100), Ragweed","[9]; Postemergence, 31 g ai/ha",90
same,"Plant response rating (scale of 0 to 100), Ragweed","[9]; Postemergence, 62 g ai/ha",95
same,Ragweed plant response rating,[9]; [15],100
same,"Plant response rating, Ragweed",[9]; 16 g ai/ha,50
same,"Plant response rating, Ragweed",[9]; 31 g ai/ha,60
same,"Plant response rating, Ragweed",[9]; 62 g ai/ha,80
same,"Plant response rating, Ragweed",[9],100
same,"Plant response rating (scale of 0 to 100), Lambsquarters","[10]; Postemergence, 16 g ai/ha",90
same,"Plant response rating (scale of 0 to 100), Lambsquarters","[10]; Postemergence, 31 g ai/ha",95
same,"Plant response rating (scale of 0 to 100), Lambsquarters","[10]; Postemergence, 62 g ai/ha",100
same,Lambsquarters plant response rating,[10]; [15],100
same,"Plant response rating, Lambsquarters",[10]; [12],70
same,"Plant response rating, Lambsquarters",[10]; [13],70
same,"Plant response rating, Lambsquarters",[10]; [14],80
same,"Plant response rating, Lambsquarters","[10]; 125 g ai/ha, scale 0 to 100",80
same,"Plant response rating (scale of 0 to 100), Surinam Grass",[11]; 16 g ai/ha,60
same,"Plant response rating (scale of 0 to 100), Surinam Grass",[11]; 31 g ai/ha,70
same,"Plant response rating (scale of 0 to 100), Surinam Grass",[11]; 62 g ai/ha,95
same,"Plant response rating, Surinam Grass",[11]; 16 g ai/ha,0
same,"Plant response rating, Surinam Grass",[11]; 31 g ai/ha,0
same,"Plant response rating, Surinam Grass",[11]; 62 g ai/ha,0
